This experiment relates to Male Swiss mice. Put plainly: acetic acid-induced writhing test (mouse writhing model). The experiment is classed as in vivo. Conditions: for oral A50 value (antinociceptive dose-response): +30 minutes before acetic acid, 95% confidence limits for ibuprofen 17.57-40.58. As to the method:
A modification of the acetic acid-induced writhing test (as disclosed in Porreca, F., H. I. Mosberg, J. R. Omnaas, T. F. Burks and A. Cowan in Supraspinal and spinal potency of selective opioid agonists in the mouse writhing test (Journal of Pharmacology and Experimental Therapeutics 240: 890-894, 1987)) was conducted. The mouse writhing model as described is commonly used to investigate analgesic efficacy and potential synergism with combinations of drugs.
Male Swiss mice weighing 25-30 g were obtained from Ace Laboratories. They were each placed in individual rectangular observation boxes and allowed to acclimate for at least 1 hour. A placebo vehicle of 1% Tween 80/water was prepared.
Groups of 8-10 mice each received the test agent or placebo vehicle (in an amount of 0.25 ml/25 grams of body weight) orally via stomach tube. Those mice that received the placebo vehicle composed the control group. After 20, 30, 40 or 60 minutes, each mouse was injected parenterally with a 0.6% acetic acid solution (0.25 ml/25 g body weight).
Percent inhibition of writhing was expressed as: (Means writhes in control group)−(Writhes by individual mouse)×100/(Mean writhes in control group)
A preliminary study was conducted at +30 minutes to establish antinociceptive dose-response curves for ibuprofen (obtained from Sigma Chemical) and celecoxib (manufactured by G.D. Searle & Co. in 200 mg capsules and marketed under the trademark Celebrex®), respectively.
A second group of mice (n=8-10) received […] of ibuprofen followed immediately by the placebo vehicle. At either +20, +40 or +60 minutes following administration, the animals were injected i.p. with 0.6% acetic acid (0.25 ml/25 g body weight) and run in the writhing test.

[1] abbreviates: dose 20 mg/kg oral, +30 minutes.
Setting [2] is: dose 40 mg/kg oral, +30 minutes.
Setting [3] is: dose 80 mg/kg oral, +30 minutes.

For `CC(C)Cc1ccc(C(C)C(=O)O)cc1` (stereo not shown) [Ibuprofen, ibuprofen], the “Mean % inhibition + s.e.m. (writhing)” value was found to be 38.7 ± 11.2% under setting [1]; 59.4 ± 9.58% under setting [2]; 74.0 ± 4.68% under setting [3]; 36.4 ± 3.2% (time 20 min, ibuprofen 29 mg/kg followed immediately by celecoxib 20 mg/kg or placebo vehicle, oral); 14.1 ± 6.2% (time 40 min, ibuprofen 29 mg/kg followed immediately by celecoxib 20 mg/kg or placebo vehicle, oral); 27.3 ± 8.2% (time 60 min, ibuprofen 29 mg/kg followed immediately by celecoxib 20 mg/kg or placebo vehicle, oral). Moreover, the “oral A50 value (antinociceptive dose-response)” value (oral) turned out to be 29.07 mg/kg.

For `Cc1ccc(-c2cc(C(F)(F)F)nn2-c2ccc(S(N)(=O)=O)cc2)cc1` [Celecoxib, 4-[5-(4-methylphenyl)-3-(trifluoromethyl)-1H-pyrazol-1-yl]benzenesulfonamide], the “effect of celecoxib on ibuprofen analgesia in words” value (celecoxib 20 mg/kg given with ibuprofen 29 mg/kg, +20 to +60 min) was “potentiated the ibuprofen through faster onset and duration of action”. For the setting “celecoxib 20 mg/kg oral alone”, the “antinociceptive activity in words” value was “essentially inactive”. Moreover, the “Mean % inhibition + s.e.m. (writhing)” value by setting is: under setting [1], 7.5 ± 3.38%; under setting [2], 21.7 ± 4.17%; under setting [3], 28.3 ± 8.34%. Besides, the “oral A50 value (antinociceptive dose-response)” value (oral) was over 80 mg/kg.

The values are drawn from patent US7754753B2, “Analgesic and anti-inflammatory compositions containing Cox-2-inhibitors” (Wyeth LLC, priority 2000, dated 2010).
